Where “and” joins values, the source holds several entries; their conditions need not be identical. Identical values can stand only once.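 48-hour exposure; five concentrations; linearly interpolated endpoints. GI50 marks 50% less growth. TGI denotes the concentration required for complete inhibition of growth.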 *1 amine or outer side, *2 acyl side, *3 side chain or, on linkers, in order; H or OH if unused. Where a SMILES comes first, the peptide text is derived from it. Bridges are numbered along the chain shown (N, C = ends). Roman numbers before positions name the chains, in order. [ ]: non-standard residue; d: D form. Actinocin(1to9) = Cc1c2oc3c(C)ccc(C(=O)[*:2])c3nc-2c(C(=O)[*:1])c(N)c1=O; NMeV = CN[CH](C(=O)O)C(C)C; Sar = CNCC(=O)O
Key:
Experiment in all cases: NCI anticancer screen, dose series, 48 h
U251 CNS = test system: U251 CNS
OVCAR-5 ovarian = test system: OVCAR-5 ovarian
OVCAR-8 ovarian = test system: OVCAR-8 ovarian
NCI-H23 lung = test system: NCI-H23 lung
ACHN renal = test system: ACHN renal
SF-539 CNS = test system: SF-539 CNS
UO-31 renal = test system: UO-31 renal
MCF7 breast = test system: MCF7 breast
K-562 leukemia = test system: K-562 leukemia
T-47D breast = test system: T-47D breast
LOX IMVI melanoma = test system: LOX IMVI melanoma

SMILES	TGI (U251 CNS) [µM]	TGI (OVCAR-5 ovarian)	TGI (OVCAR-8 ovarian) [µM]	TGI (NCI-H23 lung) [µM]	TGI (ACHN renal)	TGI (SF-539 CNS) [µM]	TGI (UO-31 renal)	TGI (MCF7 breast) [µM]	TGI (K-562 leukemia) [µM]	TGI (T-47D breast) [µM]	TGI (LOX IMVI melanoma) [µM]	GI50 (OVCAR-5 ovarian) [nM]	GI50 (UO-31 renal) [nM]
O=C1CC(=O)NC(=NN2C(=O)CSC2c2ccc(Cl)cc2)N1 (stereo unspecified)	> 100	> 100 µM	> 100	> 100	> 100 µM	> 100	> 100 µM	> 100	> 100	> 100			
O=C(Oc1ccc(C(c2c(O)c3ccccc3oc2=O)c2c(O)c3ccccc3oc2=O)cc1)c1ccc(C(=O)c2ccccc2)cc1	54.7	38.3 µM	33.8	35.3	40.3 µM	36.5	31.6 µM	> 100	47.9	> 100	52.1		
CC(=O)O[C@H]1[C@@H](OC2CCCC2(c2ccccc2)c2ccccc2)O[N+]([O-])=C[C@@H]1c1ccccc1 (stereo partly specified)	27.3	35.6 µM	6.53	35.9	12.5 µM		23.6 µM	11.3	> 32.9	> 37.9	5.04		
c1ccc(CN2C3C4N(Cc5ccccc5)C2C2N(Cc5ccccc5)C(C(N2Cc2ccccc2)N4Cc2ccccc2)N3Cc2ccccc2)cc1	> 100	> 100 µM	> 100	> 100	> 100 µM	> 100		> 100	> 100	> 100	> 100		
CC(NC1=NCCO1)c1ccsc1 (stereo unspecified)	36.8	> 100 µM	77.7	> 100	> 100 µM	38.2	> 100 µM	> 100	68	> 100	35		
CNc1ccc(C)cc1S(=O)(=O)c1ccccc1[N+](=O)[O-]	> 100	> 100 µM	> 100	> 100	> 100 µM	> 100	> 100 µM	65	> 100	> 100	> 100		
O=S(=O)(Cc1ccccc1)c1nnc(S(=O)(=O)c2ccc(Cl)cc2)s1	94.9	56.8 µM	42.8	54.2	36.4 µM	63.3	44.5 µM	> 100	> 100	> 100			
C=CC(=O)C#Cc1cnc(OC)nc1OC	18.7	33.9 µM	> 73.6	37.6	23.6 µM	30.5	33.5 µM	30.6	3.84	55.8	20.5		
c1ccc(C2(c3cc4ccccc4[nH]3)OCCO2)nc1	> 100	> 100 µM	> 100	> 100	> 100 µM	> 100	> 100 µM	> 100		> 100	> 100		
COc1ccc(C[C@@H]2OC3(C=CC(=O)CC3Sc3ccccc3)O[C@H]2Cc2ccc(OC)cc2)cc1 (stereo partly specified)	2.78	2.58 µM	0.966	5.16	2.81 µM	3	2.28 µM	1.98	> 100	3.74	1.72		
O=C(O)CCC1C(=O)C2CCN1CC2 (stereo unspecified)	> 100	> 100 µM	> 100	> 100	> 100 µM	> 100	> 100 µM	> 100	> 100	> 100	> 100		
COc1cc2c(SCCN(C)C)nc3ccccc3c2c2ccccc12	4.32	4.03 µM		15	3.64 µM	3.61	8.09 µM	3.02	> 100	7.66			
C#CCC(O)c1ccc(OC)c(OCc2ccccc2)c1 (stereo unspecified)	> 100	> 100 µM	> 100	> 100	> 100 µM	> 100	> 100 µM	> 100	> 100	> 100	> 100		
S=c1[nH]nc(COc2ccc(Cl)cc2)n1-c1ccccc1	> 100	> 100 µM	> 100	> 100	> 100 µM	> 100	> 100 µM	> 100	> 100	> 100	> 100		
COC(=O)c1ccccc1C1CN=NC12Cc1cc3c(cc1C2=O)CCC3 (stereo unspecified)	> 100	> 100 µM	> 100	> 100	> 100 µM	> 100	> 100 µM	> 100	> 100	> 100	> 100		
CC1(C)COC(c2cccc(C(O)c3ccc(Cl)cc3)c2)=N1 (stereo unspecified)	59.6	45.5 µM	42.3	64.1	> 100 µM	42.5	46.7 µM	39.6	> 100	73.9	29.1		
O=C(Cc1csc2[n+]1C(=O)/C(=C/c1ccc(Cl)cc1)S2)Nc1ccccc1	32.1	80.9 µM	> 100	91.3	61.6 µM	84.2	> 100 µM	66.1	> 100	> 100	34.4		
C=C1[C@@H](OC(C)=O)/C=C/C2C3C(=O)[C@@](C)(OC(C)=O)[C@H]([C@H](OC(C)=O)[C@]4(O)[C@@H](C)C(=O)O[C@H]4[C@H]1Cl)[C@@]23C (stereo partly specified)	> 100	> 100 µM	> 100	> 100	> 100 µM		> 100 µM		> 100	> 100	> 100		
CN(C)CCNc1ncnc2nc(-c3ccccc3)c(-c3ccccc3)nc12	> 100	> 100 µM	> 100	> 100		> 100	> 100 µM	> 100		> 100	> 100		
Cc1cc2c(cc1Cl)SC(NNC(=O)c1ccccc1)=NS2(=O)=O	> 10	> 10 µM	> 10	> 10	> 10 µM	> 10		5.76	> 10	> 10	> 10		

SMILES	TGI (U251 CNS) [µM]	TGI (OVCAR-5 ovarian)	TGI (OVCAR-8 ovarian) [µM]	TGI (NCI-H23 lung) [µM]	TGI (ACHN renal)	TGI (SF-539 CNS) [µM]	TGI (UO-31 renal)	TGI (MCF7 breast) [µM]	TGI (K-562 leukemia) [µM]	TGI (T-47D breast) [µM]	TGI (LOX IMVI melanoma) [µM]	GI50 (OVCAR-5 ovarian) [nM]	GI50 (UO-31 renal) [nM]
CCN(CC)CCC(=O)c1ccc(Cl)c(Cl)c1	> 100	> 100 µM	> 100		> 100 µM		> 100 µM	28.8	> 100	51.1	30.1		
CN1CC=C(C#CC(C)(C)O)CC1	> 37.5	> 37.5 µM	> 37.5	> 37.5	> 37.5 µM		> 37.5 µM	> 37.5	> 37.5	> 37.5	> 37.5		
C#CC(O)/C=C/C(O)CCCC(O)CC#CC(O)C#CCCCCC(O)/C=C/CCCCCC(=O)CCCCCCCCCCCCCC(O)C(O)C#CC(=O)O (stereo unspecified)	> 25	> 25 µM	> 25	> 25	> 25 µM		> 25 µM	> 25	> 25	> 25	9.88		
COc1ccc(NC(=O)CSc2nc(C)nc3c2sc(=S)n3-c2ccccc2)cc1	> 10	> 10 µM	> 10	> 10	> 10 µM	4.97		> 10	> 10	> 10	> 10		
Cc1ccc(NC(=O)CC(=O)N2N=C(N(c3ccccc3)c3ccccc3)CC2c2ccccc2)cc1 (stereo unspecified)	> 100	> 100 µM	> 100	> 100	> 100 µM	> 100	> 100 µM	> 100	> 100	> 100			
O=C(c1ccc(Cl)c(Cl)c1)N(C(=S)OC12CC3CC(CC(C3)C1)C2)c1ccccc1	> 100	> 100 µM	> 100	> 100	> 100 µM	> 100	64.3 µM	> 100	> 100	> 100			
CCOC(=O)/C1=C(\C)N(Cc2ccccc2)C(=O)c2ccccc2C(=O)c2c(OC(C)=O)ccc(OC(C)=O)c21	> 100	> 100 µM	> 100		> 100 µM	> 100	> 100 µM	58.6	> 100	> 100	> 100		
CC1=C(C)C2(C#N)C(=O)N3C(=NC(c4ccco4)NC3c3ccco3)C2(C#N)C(c2ccco2)N1 (stereo unspecified)	> 100	> 100 µM	> 100	> 100	> 100 µM		> 100 µM	> 100		> 100	> 100		
CN1C(=O)C(O)CC1c1ccccc1F (stereo unspecified)	> 100	> 100 µM	> 100	> 100	> 100 µM	> 100	> 100 µM	> 100	> 100		> 100		
Cc1c(CN2CCOCC2)c(CN2CCOCC2)c(C)n1-c1ccc(Cl)cn1	> 100	> 100 µM	> 100	> 100	> 100 µM		> 100 µM	> 100	> 100	> 100			
C=C(Cl)[C@](Cl)(CBr)CC[C@@H](Br)C(C)(C)Cl	0.335	2.98 µM	2.86	28.5	2.31 µM	1.28	2.41 µM	2.18	16.3		32.1		
Cc1ccc(S(=O)(=O)NC(=O)NC(CCCCN)C(=O)O)cc1 (stereo unspecified)	> 100		> 100	> 100	> 100 µM	> 100	> 100 µM	> 100	> 100	> 100	> 100		
COc1ccc(CC2NC(=O)C(NC(=O)c3c4nc5c(C(=O)NC6C(=O)NC(Cc7ccc(OC)cc7)C(=O)N7CCCC7C(=O)N(C)CC(=O)N(C)C(C(C)C)C(=O)OC6C)ccc(C)c5oc-4c(C)c(=O)c3N)C(C)OC(=O)C(C(C)C)N(C)C(=O)CN(C)C(=O)C3CCCN3C2=O)cc1 (stereo unspecified) (I: TY(Me)P[Sar][NMeV] / II: TY(Me)P[Sar][NMeV]; ester I:1-I:C, II:1-II:C; linker I:N-II:N via Actinocin(1to9); configuration not given here)		0.419 µM and 0.67 µM		0.126	1.66 µM and 1.55 µM	0.0257	0.46 µM and 0.257 µM		0.0708	0.0705	0.0144	30.2	32.7
CC1CCC2C(C)C(OC(=O)CCC(=O)O)OC3OC4(C)CCC1C32OO4 (stereo unspecified)	31.3	57.8 µM	> 100		18.3 µM	29.1	3.88 µM	28.5	19.8	> 100	2.92		
CCc1n[nH]c(=O)n1-n1c(C)ccc1C	> 100	> 100 µM	> 100		> 100 µM		> 100 µM	> 100	> 100	> 100	> 100		
COc1ccc(/C=N/NS(=O)(=O)c2ccc(/C=C3\NC(=O)NC3=O)cc2)cc1	> 100	> 100 µM	> 100	> 100	> 100 µM		> 100 µM	> 100	> 100	> 100	> 100		
COc1cc2c(cc1OC)C1CN3CCCC3C(O)C1c1cc(OC)c(OC)cc1-2 (stereo unspecified)	> 100	> 100 µM	> 100	> 100	> 100 µM		> 100 µM	> 100	> 100	> 100	> 100		
O=[N+]([O-])c1ccccc1S(=O)(=O)c1cccc2c1NCCC2		> 100 µM	> 100		> 100 µM	> 100	> 100 µM	> 100	> 100		> 100		
O=c1c2ccccc2nc(-c2ccccc2)n1/N=C/c1ccccc1[N+](=O)[O-]	> 94.8	> 100 µM	> 100	58.8	> 100 µM	> 100		> 100	> 100	> 100	> 100		
C#CCNCC(=O)O	> 100	> 100 µM	> 100	> 100	> 100 µM	> 100	> 100 µM	> 100		> 100			

From PubChem BioAssay (NCI)
